Data on three molecules can be found in paper PMC2365111, “Cytotoxicity of Poly(Phenolic)Sulfonates and Their Sodium Salts in L1210 Lymphoid Leukemia Cells” (Metal-Based Drugs, 1998).

One assay deals with L1210 d[NTP] pool levels. Put plainly: Deoxyribonucleoside triphosphate pool levels. Type of assay: cell-based, mouse. As to conditions: 100 μM, 60 min, N=6. An excerpt:
(§1) CYTOTOXlCITY OF POLY(PHENOLIC)SULFONATES AND THEIR SODIUM SALTS IN L1210 LYMPHOID LEUKEMIA CELLS Fei Wang, Amy E. Warren, Cheryl R. Barnes and Iris H. Hall* Division of Medicinal Chemistry and Natural Products University of North Carolina Chapel Hill, N.C. […] Because ofthese properties it was surmised that these poly(phenolic)sulfonated compounds may have antineoplastic activity. METHODS Source of Compounds Test compounds were supplied by GeneLabs, Inc. [Redwood City, CA [Table 1]. Radioisotopes were obtained from New England Nuclear [Dupont, Boston, MA]. Substrates and co-factors were purchased om Sigma Chemical Co., [St Louis, MO]. Pentosan sulfate and other antineoplastic standards were obtained from Sigma Chemical Co. Tumor lines were obtained from American Type Culture Collection [Rockville, MD]. 147 Vol. 5, No. 3, 1998 Cytotoxicity ofSodium Poly(Phenolic)Sulfonates in L1210 Lymphoid Leukemia Cells Table 1 Structures of Poly(phenolic)sulfonate Compounds O2R" n Compound R' R" n MW # G1-2041 H OH 8 1489.46 G1-2029 H OH 6 1117.09 G1-2030 H OH 4 744.73 GI-2021 CH3 ONa 8 1777.5 G1-2057 CH3 ONa 4 888.75 GI-2158 CH3 ONa 6 1333.13 GI-2063 OCH3 ONa 8 2001.65 G1-2042 OAc ONa 8 2017.73 Cytotoxicity Poly(phenolic)sulfonates were tested for cytotoxic activity by homogenizing drug in 0.05% Tween 80/H20 to give a mg/ml stock concentration. These solutions were sterilized by passing them through an acrodisc ([…]). The following cell lines were maintained by literature techniques: murine L1210 lymphoid leukemia, P-388 lymphocytic leukemia, rat UMR 106 osteosarcoma, human Tmolt3 acute lymphoblastic T cell leukemia, HUT-8 lymphoma, HeLa-S suspended cervical carcinoma, HeLa solid cervical carcinoma, KB epidermoid nasopharynx, A431 epidermoid carcinoma, colorectal adenocarcinoma SW480, HCT-8 ileocecal adenocarcinoma, lung bronchogenic MB-9812, A549 lung carcinoma, and glioma HS683. Geran et al.'s protocol was used to assess the cytotoxicity of the compounds and standards in each cell line. Cell numbers were determined by the trypan blue exclusion technique. Solid tumor cytotoxicity was determined by Leibovitz et al. 's method utilizing crystal violeeOH and read at 562 nm (Molecular Devices). Values for cytotoxicity were expressed as EDs0 g/ml, i.e. the concentration ofthe compound inhibiting 50% ofcell growth. A value of less than 4 µg/ml was required for significant activity ofgrowth inhibition. Incorporation Studies Incorporation of labeled precursors into 3H-DNA, 3H -RNA and 3H -protein for 10 L1210 cells was obtained. The concentration response for inhibition of DNA, RNA and protein synthesis of the compounds at 25, 50 and 100 l.tM was determined for 60 min incubations. Incorporation of 14C -glycine (53.0 mCi/mmol) into purines was obtained by the method of Cadman et al.[12]. Incorporation of 4C- formate (53.0 mCi/mmol) into pyrimidines was determined by the method of Christopherson et al.[13]. Enzyme Assays Inhibition of various enzyme activities was performed by first preparing the appropriate L1210 cell homogenates or subcellular fractions, then adding the drug to be tested during the enzyme assay. For the concentration response studies, inhibition of enzyme activity was determined at 25, 50 and 100 l.tM of compounds G1-2021, G1-2029, GI-2041 and G1-2063 after 60 min incubations. DNA polymerase Ot activity was determined in cytoplasmic extracts isolated by Eichler et aL's method. The DNA polymerase assay was described by Sedwick et al.[15] using 3H-TTP. Messenger-, ribosomal- and transfer-RNA polymerase enzymes were isolated with different concentrations of ammonium sulfate; individual RNA polymerase activities were determined using 3H -UTP 16,17]. Ribonucleoside reductase activity was measured using 4C -CDP with dithioerythritol. The deoxyribonucleotides 4C -dCDP were separated from the ribonucleotides by TLC on PEI plates. […]

A further assay concerns L1210 DNA synthesis. Put plainly: Incorporation of labeled precursor into DNA. Type of assay: cell-based, mouse. As to conditions: 60 min, N=6.
Source text: as §1

Assay [1] relates to L1210 de novo purine synthesis. Put plainly: 14C-glycine incorporation into purines. The assay is classed as cell-based, mouse. The conditions noted are these: 60 min, N=6.
Source text: as §1

The subject of assay [2] is Thymidine diphosphate kinase. Briefly: TDP kinase activity, L1210. As to conditions: 60 min, N=6. Type of assay: biochemical, mouse.
Source text: as §1

A further assay addresses T1, rRNA polymerase (Mus musculus, UniProt O35134).
T1 construct: Messenger-, ribosomal- and transfer-RNA polymerase enzymes were isolated with different concentrations of ammonium sulfate; endogenous in cells; host or cells: L1210 murine lymphoid leukemia cells, ammonium sulfate fraction
Briefly: Ribosomal-RNA polymerase activity, L1210. As to conditions: 60 min, N=6. Type of assay: biochemical.
Source text: as §1

Another assay concerns the target T2, PRPP amido transferase (Mus musculus, UniProt Q8CIH9).
T2 construct: preparing the appropriate L1210 cell homogenates or subcellular fractions; endogenous in cells; host or cells: L1210 murine lymphoid leukemia cells, homogenate or subcellular fraction
Put plainly: PRPP amidotransferase activity, L1210. As to conditions: 60 min, N=6. Type of assay: biochemical.
Source text: as §1, with “Enzyme Assays Inhibition of various enzyme activities was performed by first preparing the appropriate L1210 cell homogenates or subcellular fractions, then adding the drug to be tested during the enzyme assay. For the concentration response studies, inhibition of enzyme activity was determined at 25, 50 and 100 l.tM of compounds G1-2021, G1-2029, GI-2041 and G1-2063 after 60 min incubations.” left out, “The DNA polymerase assay was described by Sedwick et al.[15] using 3H-TTP.” left out, “dithioerythritol.” for “dithioerythritol. The deoxyribonucleotides 4C -dCDP were separated from the ribonucleotides by TLC on PEI plates.”

The target of a further assay is T3, mRNA polymerase (Mus musculus, UniProt P08775).
T3 construct: Messenger-, ribosomal- and transfer-RNA polymerase enzymes were isolated with different concentrations of ammonium sulfate; endogenous in cells; host or cells: L1210 murine lymphoid leukemia cells, ammonium sulfate fraction
Briefly: Messenger-RNA polymerase activity, L1210. Type of assay: biochemical. The conditions noted are these: 60 min, N=6. From the text: CYTOTOXlCITY OF POLY(PHENOLIC)SULFONATES AND THEIR SODIUM SALTS IN L1210 LYMPHOID LEUKEMIA CELLS Fei Wang, Amy E. Warren, Cheryl R. Barnes and Iris H. Hall* Division of Medicinal Chemistry and Natural Products University of North Carolina Chapel Hill, N.C. […] Because ofthese properties it was surmised that these poly(phenolic)sulfonated compounds may have antineoplastic activity. METHODS Source of Compounds Test compounds were supplied by GeneLabs, Inc. [Redwood City, CA [Table 1]. Radioisotopes were obtained from New England Nuclear [Dupont, Boston, MA]. Substrates and co-factors were purchased om Sigma Chemical Co., [St Louis, MO]. Pentosan sulfate and other antineoplastic standards were obtained from Sigma Chemical Co. Tumor lines were obtained from American Type Culture Collection [Rockville, MD]. […] Cell numbers were determined by the trypan blue exclusion technique. Solid tumor cytotoxicity was determined by Leibovitz et al. 's method utilizing crystal violeeOH and read at 562 nm (Molecular Devices). Values for cytotoxicity were expressed as EDs0 g/ml, i.e. the concentration ofthe compound inhibiting 50% ofcell growth. […] Incorporation of 4C- formate (53.0 mCi/mmol) into pyrimidines was determined by the method of Christopherson et al.[13]. […] DNA polymerase Ot activity was determined in cytoplasmic extracts isolated by Eichler et aL's method. […] Messenger-, ribosomal- and transfer-RNA polymerase enzymes were isolated with different concentrations of ammonium sulfate; individual RNA polymerase activities were determined using 3H -UTP 16,17]. Ribonucleoside reductase activity was measured using 4C -CDP with dithioerythritol. […]

T2 sequence (Q8CIH9 12-517): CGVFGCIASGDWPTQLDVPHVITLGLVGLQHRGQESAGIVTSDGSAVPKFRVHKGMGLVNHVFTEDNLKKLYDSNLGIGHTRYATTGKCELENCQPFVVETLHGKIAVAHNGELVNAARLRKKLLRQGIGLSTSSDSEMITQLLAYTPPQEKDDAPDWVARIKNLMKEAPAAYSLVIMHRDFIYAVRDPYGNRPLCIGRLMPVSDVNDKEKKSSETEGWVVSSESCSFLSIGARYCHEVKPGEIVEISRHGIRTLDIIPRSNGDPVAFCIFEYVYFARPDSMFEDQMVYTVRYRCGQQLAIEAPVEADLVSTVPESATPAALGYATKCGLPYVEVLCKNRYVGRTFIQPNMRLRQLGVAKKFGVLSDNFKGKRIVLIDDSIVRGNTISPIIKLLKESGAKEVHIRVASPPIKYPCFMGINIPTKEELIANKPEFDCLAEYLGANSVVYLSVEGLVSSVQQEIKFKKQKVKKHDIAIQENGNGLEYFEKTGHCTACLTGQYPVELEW

With `O=S(=O)(O)c1cc2c(O)c(c1)Cc1cc(S(=O)(=O)O)cc(c1O)Cc1cc(S(=O)(=O)O)cc(c1O)Cc1cc(S(=O)(=O)O)cc(c1O)Cc1cc(S(=O)(=O)O)cc(c1O)Cc1cc(S(=O)(=O)O)cc(c1O)C2` [GI-2029], the “d(ATP)” value in the assay with L1210 d[NTP] pool levels is 68+5% of Control. In addition, the “d(CTP)” value in the assay on L1210 d[NTP] pool levels was 96+ 5% of Control. Moreover, in the assay on L1210 d[NTP] pool levels, the “d(TTP)” value is listed as 98+5% of Control. For the same molecule, the DNA synthesis with L1210 DNA synthesis (50 μM) is given as 78+3% of Control. For the same molecule, the “Purine de novo synthesis” value is given as 130+6% of Control in assay [1] (25 μM) and 97+6% of Control in assay [1] (50 μM). Moreover, the Thymidine diphosphate kinase in assay [2] (25 μM) is reported as 57+3% of Control; in assay [2] (100 μM) it was 27+3% of Control. Besides, the figures for the rRNA polymerase on rRNA polymerase (25 μM), on rRNA polymerase (50 μM) and on rRNA polymerase (100 μM) were 115+6% of Control, 102+4% of Control and 107+5% of Control, respectively. Besides, the PRPP amido transferase at PRPP amido transferase (50 μM) was 30+3% of Control. Also, the mRNA polymerase on mRNA polymerase (100 μM) is recorded as 50+3% of Control.

Turning to `COc1c2cc(S(=O)(=O)[O-])cc1Cc1cc(S(=O)(=O)[O-])cc(c1OC)Cc1cc(S(=O)(=O)[O-])cc(c1OC)Cc1cc(S(=O)(=O)[O-])cc(c1OC)Cc1cc(S(=O)(=O)[O-])cc(c1OC)Cc1cc(S(=O)(=O)[O-])cc(c1OC)Cc1cc(S(=O)(=O)[O-])cc(c1OC)Cc1cc(S(=O)(=O)[O-])cc(c1OC)C2.[Na+].[Na+].[Na+].[Na+].[Na+].[Na+].[Na+].[Na+]` [GI-2021], the “d(ATP)” value in the assay on L1210 d[NTP] pool levels is 65+ 4% of Control. Besides, the “d(CTP)” value with L1210 d[NTP] pool levels is 67+5% of Control. Moreover, the “d(GTP)” value in the assay with L1210 d[NTP] pool levels is 79+4% of Control. Besides, the “d(TTP)” value in the assay with L1210 d[NTP] pool levels is 88+6% of Control. Moreover, the DNA synthesis in the assay with L1210 DNA synthesis (25 μM) was 105+6% of Control; with L1210 DNA synthesis (50 μM) it was 77+5% of Control; in the assay on L1210 DNA synthesis (100 μM), 39+5% of Control. In addition, the results for the “Purine de novo synthesis” value in assay [1] (25 μM), in assay [1] (50 μM) and in assay [1] (100 μM) were 121+6% of Control, 118+4% of Control and 74+6% of Control, respectively. In addition, the figures for the Thymidine diphosphate kinase in assay [2] (50 μM) and in assay [2] (100 μM) were 32+3% of Control and 26+3% of Control, respectively. Further, the rRNA polymerase at rRNA polymerase (25 μM) is given as 122+7% of Control; at rRNA polymerase (50 μM), 120+5% of Control; on rRNA polymerase (100 μM) it was 123+4% of Control. The figures for the PRPP amido transferase at PRPP amido transferase (25 μM) and on PRPP amido transferase (50 μM) were 62+5% of Control and 61+4% of Control, respectively. Besides, the mRNA polymerase on mRNA polymerase (25 μM) is 99+5% of Control.

For the molecule `O=S(=O)(O)c1cc2c(O)c(c1)Cc1cc(S(=O)(=O)O)cc(c1O)Cc1cc(S(=O)(=O)O)cc(c1O)Cc1cc(S(=O)(=O)O)cc(c1O)Cc1cc(S(=O)(=O)O)cc(c1O)Cc1cc(S(=O)(=O)O)cc(c1O)Cc1cc(S(=O)(=O)O)cc(c1O)Cc1cc(S(=O)(=O)O)cc(c1O)C2` [GI-2041], the “d(ATP)” value in the assay with L1210 d[NTP] pool levels was 62+ 5% of Control. Moreover, the “d(GTP)” value with L1210 d[NTP] pool levels was 74+5% of Control. In the assay with L1210 d[NTP] pool levels, the “d(TTP)” value is 89+6% of Control. Further, the DNA synthesis with L1210 DNA synthesis (25 μM) is reported as 98+6% of Control; in the assay on L1210 DNA synthesis (50 μM), 84+5% of Control; with L1210 DNA synthesis (100 μM), 33+5% of Control. For the same molecule, the “Purine de novo synthesis” value is given as 85+5% of Control in assay [1] (25 μM) and 54+3% of Control in assay [1] (100 μM). Besides, the Thymidine diphosphate kinase in assay [2] (25 μM) is 89+5% of Control; in assay [2] (50 μM) it was 64+5% of Control; in assay [2] (100 μM) it was 54+3% of Control. Besides, the rRNA polymerase on rRNA polymerase (25 μM) is 112+5% of Control. The PRPP amido transferase at PRPP amido transferase (50 μM) was 38+3% of Control; on PRPP amido transferase (100 μM) it was 10+2% of Control. In addition, the mRNA polymerase on mRNA polymerase (100 μM) was 47+3% of Control.
